Several values for one entry are separate records, joined by “and”; a condition that tells them apart may be missing. Equal entries are not always repeated. Toxic doses and inconclusive results are not listed. Cut-off read from the data, not from the text of the source: active = T/C of 150% or more; inactive = T/C below 125%.
Test system: L1210 leukemia ip in BDF1 mice, survival T/C
Assay: NCI In Vivo Anticancer Drug Screen. Data for tumor model L1210 Leukemia (intraperitoneal) in B6D2F1 (BDF1) mice
Conditions: endpoint: mean survival time, higher = longer survival
In short: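 Tumor cells were implanted, animals were treated, and survival was followed. The result divides the treated measurement by the vehicle-control measurement.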

[1] = dose: 100.0 mg/kg/injection, schedule: Q01DX009 (ip), vehicle: Klucel (hydroxypropylcellulose) (HPC)
[2] = dose: 100.0 mg/kg/injection, schedule: Q04DX003 (ip), vehicle: Klucel (hydroxypropylcellulose) (HPC)
[3] = dose: 200.0 mg/kg/injection, schedule: Q01DX009 (ip), vehicle: Klucel (hydroxypropylcellulose) (HPC)
[4] = dose: 200.0 mg/kg/injection, schedule: Q04DX003 (ip), vehicle: Klucel (hydroxypropylcellulose) (HPC)
[5] = dose: 400.0 mg/kg/injection, schedule: Q01DX009 (ip), vehicle: Klucel (hydroxypropylcellulose) (HPC)
[6] = dose: 100.0 mg/kg/injection, schedule: Q01DX001 (ip), vehicle: saline
[7] = dose: 200.0 mg/kg/injection, schedule: Q01DX001 (ip), vehicle: saline
[8] = dose: 100.0 mg/kg/injection, schedule: Q04DX002 (ip), vehicle: Klucel (hydroxypropylcellulose) (HPC)
[9] = dose: 200.0 mg/kg/injection, schedule: Q04DX002 (ip), vehicle: Klucel (hydroxypropylcellulose) (HPC)
[10] = dose: 400.0 mg/kg/injection, schedule: Q04DX002 (ip), vehicle: Klucel (hydroxypropylcellulose) (HPC)
[11] = dose: 100.0 mg/kg/injection, schedule: Q01DX001 (ip), vehicle: carboxymethylcellulose (CMC)
[12] = dose: 100.0 mg/kg/injection, schedule: Q01DX009 (ip), vehicle: saline
[13] = dose: 100.0 mg/kg/injection, schedule: Q04DX003 (ip), vehicle: saline
[14] = dose: 200.0 mg/kg/injection, schedule: Q01DX001 (ip), vehicle: carboxymethylcellulose (CMC)
[15] = dose: 200.0 mg/kg/injection, schedule: Q01DX009 (ip), vehicle: saline
[16] = dose: 200.0 mg/kg/injection, schedule: Q04DX003 (ip), vehicle: saline
[17] = dose: 400.0 mg/kg/injection, schedule: Q04DX003 (ip), vehicle: saline
[18] = dose: 25.0 mg/kg/injection, schedule: Q04DX002 (ip), vehicle: saline with Tween-80
[19] = dose: 50.0 mg/kg/injection, schedule: Q04DX002 (ip), vehicle: saline with Tween-80
[20] = dose: 100.0 mg/kg/injection, schedule: Q04DX002 (ip), vehicle: saline with Tween-80
[21] = dose: 100.0 mg/kg/injection, schedule: Q01DX009 (ip), vehicle: carboxymethylcellulose (CMC)
[22] = dose: 200.0 mg/kg/injection, schedule: Q01DX009 (ip), vehicle: carboxymethylcellulose (CMC)
[23] = dose: 200.0 mg/kg/injection, schedule: Q04DX002 (ip), vehicle: saline with Tween-80
[24] = dose: 400.0 mg/kg/injection, schedule: Q01DX001 (ip), vehicle: carboxymethylcellulose (CMC)
[25] = dose: 100.0 mg/kg/injection, schedule: Q01DX Z (ip), vehicle: methylcellulose (MC)

Measured: T/C

O=[N+]([O-])c1ccc(SNc2ccc(O)cc2)cc1[N+](=O)[O-]
inactive: [1] 101 % of control | [2] 94 % of control | [3] 100 % of control | [4] 100 % of control | [5] 105 % of control | dose: 400.0 mg/kg/injection, schedule: Q04DX003 (ip), vehicle: Klucel (hydroxypropylcellulose) (HPC) 95 % of control

CCN(CC)CCCC(C)n1nnc2cc(Cl)ccc21 (stereo not drawn)
inactive: [6] 97 % of control | [7] 97 % of control

CCCc1c(CC)c(Cl)nc2ccccc12
inactive: [6] 105 % of control | [7] 103 % of control | dose: 400.0 mg/kg/injection, schedule: Q01DX001 (ip), vehicle: saline 91 % of control

CC(C)(C)[CH2][Sn]([CH2]C(C)(C)C)([CH2]C(C)(C)C)[c]1ccc(-c2ccccc2)cc1
inactive: [8] 111 % of control | [9] 92 % of control | [10] 92 % of control

O=S1(=O)C=CCC1
inactive: dose: 50.0 mg/kg/injection, schedule: Q01DX001 (ip), vehicle: carboxymethylcellulose (CMC) 100 % of control | [11] 94 % of control | [12] 96 % of control | [13] 100 % of control | [14] 103 % of control | [15] 102 % of control | [16] 94 % of control | [17] 100 % of control

C/C(=N\NC(N)=O)C1CCC(c2ccccc2)CC1 (stereo not drawn)
inactive: dose: 100.0 mg/kg/injection, schedule: Q01DX001 (ip), vehicle: Klucel (hydroxypropylcellulose) (HPC) 103 % of control | [1] 90 % of control | dose: 200.0 mg/kg/injection, schedule: Q01DX001 (ip), vehicle: Klucel (hydroxypropylcellulose) (HPC) 96 % of control | [3] 86 % of control | dose: 400.0 mg/kg/injection, schedule: Q01DX001 (ip), vehicle: Klucel (hydroxypropylcellulose) (HPC) 92 % of control | [5] 91 % of control

C/C(=C(/CCO)SCC/C(=N/O)c1ccccc1)N(C=O)Cc1cnc(C)nc1N
inactive: [13] 104 % of control | [16] 97 % of control | [17] 93 % of control

S=P(S)(Oc1ccc(Cl)cc1Cl)Oc1ccc(Cl)cc1Cl.[Cd]
inactive: [18] 89 % of control | [19] 92 % of control | [20] 123 % of control

CCCCS(=O)(=O)N(CC)CC
inactive: [21] 109 % of control | [22] 96 % of control

Cc1no[n+]([O-])c1C(=O)NN
inactive: [8] 106 % of control | [9] 91 % of control | [10] 95 % of control

ClC(Cl)(Cl)c1ccc(C2OCCO2)cc1
inactive: dose: 177.0 mg/kg/injection, schedule: Q01DX001 (ip), vehicle: other 98 % of control | dose: 266.0 mg/kg/injection, schedule: Q01DX001 (ip), vehicle: other 110 % of control | dose: 400.0 mg/kg/injection, schedule: Q01DX001 (ip), vehicle: other 94 % of control | dose: 600.0 mg/kg/injection, schedule: Q01DX001 (ip), vehicle: other 111 % of control

C[OH+]c1ccccc1C(=O)O.C[OH+]c1ccccc1C(=O)O.[Ni]
inactive: [18] 97 % of control and 103 % of control | [19] 100 % of control and 107 % of control | [23] 120 % of control and 90 % of control

CSc1ncnc2c1ncn2N1CCCC1
inactive: dose: 75.0 mg/kg/injection, schedule: Q01DX001 (ip), vehicle: other 101 % of control | dose: 150.0 mg/kg/injection, schedule: Q01DX001 (ip), vehicle: other 97 % of control | dose: 300.0 mg/kg/injection, schedule: Q01DX001 (ip), vehicle: other 98 % of control

CCCCCCCCCC(=O)N(C(C)C)C(C)C
inactive: [11] 100 % of control | [21] 96 % of control and 106 % of control | dose: 100.0 mg/kg/injection, schedule: Q04DX003 (ip), vehicle: carboxymethylcellulose (CMC) 93 % of control | [14] 94 % of control | [22] 94 % of control and 100 % of control | dose: 200.0 mg/kg/injection, schedule: Q04DX003 (ip), vehicle: carboxymethylcellulose (CMC) 95 % of control | [24] 96 % of control | dose: 400.0 mg/kg/injection, schedule: Q01DX009 (ip), vehicle: carboxymethylcellulose (CMC) 95 % of control | dose: 400.0 mg/kg/injection, schedule: Q04DX003 (ip), vehicle: carboxymethylcellulose (CMC) 92 % of control

CCCCN1C(=O)N(CCCC)C(=O)C(Br)(Br)C1=O
inactive: dose: 50.0 mg/kg/injection, schedule: Q01DX009 (ip), vehicle: saline with Tween-80 97 % of control | dose: 100.0 mg/kg/injection, schedule: Q01DX009 (ip), vehicle: saline with Tween-80 105 % of control | dose: 200.0 mg/kg/injection, schedule: Q01DX009 (ip), vehicle: saline with Tween-80 97 % of control

CC(CC(=O)c1ccc(F)cc1)N1CCOCC1 (stereo not drawn)
inactive: [6] 92 % of control | [7] 90 % of control

CNC(=O)ON=C1CCC(CC2CCCCC2)CC1 (stereo not drawn)
inactive: dose: 50.0 mg/kg/injection, schedule: Q01DX009 (ip), vehicle: Klucel (hydroxypropylcellulose) (HPC) 100 % of control | [1] 91 % of control | [2] 92 % of control | [3] 96 % of control | [4] 94 % of control

CCOC(=O)CCNC1CCCCC1
inactive: [25] 96 % of control | dose: 200.0 mg/kg/injection, schedule: Q01DX Z (ip), vehicle: methylcellulose (MC) 94 % of control

Cn1c(=O)cc(C=Nc2ccc(O)cc2)c2ccccc21
inactive: [6] 94 % of control | [7] 98 % of control

O=[N+]([O-])c1ccc(O)cc1
inactive: dose: 12.5 mg/kg/injection, schedule: Q04DX003 (ip), vehicle: saline + alcohol 103 % of control | dose: 25.0 mg/kg/injection, schedule: Q04DX003 (ip), vehicle: saline + alcohol 100 % of control | dose: 50.0 mg/kg/injection, schedule: Q04DX003 (ip), vehicle: saline + alcohol 108 % of control | [6] 113 % of control | [20] 102 % of control | [7] 101 % of control | [23] 91 % of control

CC(=O)OCC(O)CO (stereo not drawn)
inactive: [12] 102 % of control | [15] 96 % of control | dose: 400.0 mg/kg/injection, schedule: Q01DX009 (ip), vehicle: saline 102 % of control

CCOC(=O)C1=C(C)NC(C)=C(C(=O)OCC)C1C
inactive: [11] 111 % of control | [14] 116 % of control | [24] 106 % of control

N#CCCCN1C(=O)c2ccccc2S1(=O)=O
inactive: dose: 44.0 mg/kg/injection, schedule: Q01DX Z (ip), vehicle: methylcellulose (MC) 98 % of control | dose: 66.0 mg/kg/injection, schedule: Q01DX Z (ip), vehicle: methylcellulose (MC) 120 % of control | [25] 98 % of control
